Results published in patent US20160061843A1, “BIOMARKER ASSAY” (Respiratory Clinical Trials Ltd, priority 2014, published 2016).

Experiments:
Format in all cases: cell-based, human
[1] = tested on: intracellular pSTAT1 in macrophages; test: Flow cytometry of IFNγ-induced STAT1 phosphorylation in induced sputum macrophages from COPD subjects; conditions: IFNγ 10 ng/ml
Text: Sputum samples were collected from 15 COPD subjects on three or four repeat visits (i.e., three to four samples per subject). In each case, the subject inhaled 3% (w/v) saline solution mist through the mouthpiece of an ultrasonic nebulizer for five minutes. Sputum mobilization techniques were utilized to assist with the production of a sputum sample, such as diaphragmatic breathing, huffs, percussion, vibrations and positive expiratory pressure techniques. The subject was asked to attempt to cough sputum into a sputum collection pot. If the FEV1 fell by <10% after inhalation of 3% (w/v) saline, the participant was asked to inhale the next saline concentration (4% w/v) and repeat the procedure detailed above. Again if the FEV1 fell by <10% after inhalation of 4% (w/v) saline, the participant was asked to inhale the next saline concentration (5% w/v) and repeat the procedure detailed above. The sputum collected after 15 minutes of nebulization (i.e., 3×5 minutes) was processed in the laboratory for flow cytometric analysis. Induced sputum was kept on ice and processed as soon as possible but no more than two hours from collection. Sputum plugs were selected for processing and suitably transferred into a centrifuge tube. The volume of the selected sputum sample was noted and an equal volume of DPBS added. To liquefy the sample Sputolysin® was added to a final concentration of 0.05% (w/v). The tube was placed on a plate shaker (300 rpm) for 30 minutes at room temperature to disperse the cells. After 30 minutes the sample was mixed gently with a Pasteur pipette and left to shake for a further 15 minutes. The sample was centrifuged at 1200 rpm for 10 minutes at room temperature. Sputum supernatant was collected and used to measure cytokines/chemokines of interest. […] The supernatant was removed and the cell pellet resuspended in 500 μl staining buffer ready for flow cytometric analysis. […] Levels of STAT phosphorylation in the macrophage population were determined by taking the MFI of the stimulated sample and dividing by the MFI for the non-stimulated sample.

[2] = tested on: intracellular pSTAT3 in sputum macrophages; test: Flow cytometry of IFNγ-induced STAT3 phosphorylation in induced sputum macrophages from COPD subjects; conditions: % stimulation = stimulated MFI/non-stimulated MFI×100; IFNγ 10 ng/ml
Description: FIG. 10 is a bar graph showing STAT3 phosphorylation in sputum macrophages following stimulation with IFNγ in the absence or presence of increasing concentrations of a MK2 inhibitor. % stimulation was calculated as stimulated MFI/non-stimulated MFI×100.
The methods of Example 1 were repeated exactly, but this time measuring intracellular STAT3 phosphorylation using an Alexa Fluor® 647 conjugated anti-pSTAT3 antibody. In addition, a MK2 inhibitor was tested instead of a JAK inhibitor compound. Increasing concentrations of inhibitor were tested (1 μM, 10 μM and 100 μM); the same conditions otherwise applied.

[3] = tested on: intracellular pSTAT1(Y701) in macrophages; test: Flow cytometry of IFNγ-induced STAT1(Y701) phosphorylation in induced sputum macrophages from smokers; conditions: unstimulated MFI 345.5; sputum from two smokers
Description: FIG. 11A is a line graph showing the stimulation of STAT1(Y701) phosphorylation in macrophages and neutrophils from induced sputum by IFNγ, and inhibition of such phosphorylation after pre-incubation with increasing concentrations of a MK2 inhibitor followed by IFNγ stimulation. FIG. 11B is a bar graph showing phosphorylation of STAT1 (Y701) in macrophages in the presence and absence of the MK2 inhibitor expressed as % stimulation. % stimulation was calculated as stimulated MFI/non-stimulated MFI×100.
Induced sputum samples were obtained as described in Example 1. In this study, however, the subjects were smokers. Sputum was collected from two subjects.
Sputum samples were processed as described in Example 1.
Inducing STAT1(Y701) Phosphorylation STAT phosphorylation was induced as described in Example 1. In this study, however, the inhibitor compound was a MK2 inhibitor […].
Samples were stained as described in Example 1. However, in this study, and in order to specifically detect STAT1(Y701) phosphorylation, an Alexa Fluor® 647 conjugated anti-pSTAT1(Y701) antibody was used.
Levels of STAT1(Y701) phosphorylation in the macrophage population were determined by taking the MFI of the stimulated sample and dividing by the MFI for the non-stimulated sample. A value of greater than one (>1) indicated positive staining.

Compound | inhibition of STAT1 phosphorylation (in words) ([1]; inhibitor final concentration 10^−5 M) | MFI of intracellular pSTAT1 in macrophages after incubation with IFNγ+JAK inhibitor ([1]; inhibitor final concentration 10^−5 M, unstimulated MFI 120.7±23.92, stimulated MFI 196.7±33.97) | MFI of intracellular pSTAT1 in macrophages after incubation with IFNγ ([1]; 20 min, 37° C., unstimulated MFI 120.7±23.92, 15 COPD subjects) | increase of intracellular pSTAT3 in sputum macrophages following incubation with IFNγ [2] [%] | MFI of intracellular pSTAT1(Y701) in macrophages stimulated with IFNγ [3]
C[C@@H]1CCN(C(=O)N2CCCC2)C[C@@H]1N(C)c1ncnc2[nH]ccc12 [JAK inhibitor, PF 956980] | complete inhibition | 118.3±24.44 |  |  | 
IFNγ: cytokine used as stimulator of STAT phosphorylation |  |  | 196.7±33.97 | 100 | 511
